Results taken from ChEMBL document CHEMBL3286379, “Design and synthesis of pyrimidine molecules endowed with thiazolidin-4-one as new anticancer agents” (Eur J Med Chem, 2014).

Key:
Assay type in all cases: functional
[1] = tested on: DU-145; test: Growth inhibition of human DU145 cells assessed as cell growth at 10 uM after 48 hrs by sulforhodamine B assay relative to control; conditions: DU-145, 48 h, read-out: Activity
[2] = tested on: M14; test: Growth inhibition of human M14 cells assessed as cell growth at 10 uM after 48 hrs by sulforhodamine B assay relative to control; conditions: M14, 48 h, read-out: Activity
[3] = tested on: MDA-MB-468; test: Growth inhibition of human MDA-MB-468 cells assessed as cell growth at 10 uM after 48 hrs by sulforhodamine B assay relative to control; conditions: MDA-MB-468, 48 h, read-out: Activity
[4] = tested on: RPMI-8226; test: Growth inhibition of human RPMI8226 cells assessed as cell growth at 10 uM after 48 hrs by sulforhodamine B assay relative to control; conditions: RPMI-8226, 48 h, read-out: Activity
[5] = tested on: ACHN; test: Growth inhibition of human ACHN cells assessed as cell growth at 10 uM after 48 hrs by sulforhodamine B assay relative to control; conditions: read-out: Activity
[6] = Growth inhibition of human HOP92 cells assessed as cell growth at 10 uM after 48 hrs by sulforhodamine B assay relative to control; conditions: HOP-92, 48 h, read-out: Activity
[7] = tested on: A498; test: Growth inhibition of human A498 cells assessed as cell growth at 10 uM after 48 hrs by sulforhodamine B assay relative to control; conditions: A498, 48 h, read-out: Activity
[8] = tested on: NCI-H23; test: Growth inhibition of human NCI-H23 cells assessed as cell growth at 10 uM after 48 hrs by sulforhodamine B assay relative to control; conditions: NCI-H23, 48 h, read-out: Activity
[9] = tested on: K562; test: Growth inhibition of human K562 cells assessed as cell growth at 10 uM after 48 hrs by sulforhodamine B assay relative to control; conditions: K562, 48 h, read-out: Activity
[10] = tested on: CAKI-1; test: Growth inhibition of human CAKI-1 cells assessed as cell growth at 10 uM after 48 hrs by sulforhodamine B assay relative to control; conditions: CAKI-1, 48 h, read-out: Activity
[11] = Growth inhibition of human Hs 578T cells assessed as cell growth at 10 uM after 48 hrs by sulforhodamine B assay relative to control; conditions: read-out: Activity
[12] = tested on: MCF7; test: Growth inhibition of human MCF7 cells assessed as cell growth at 10 uM after 48 hrs by sulforhodamine B assay relative to control; conditions: MCF7, 48 h, read-out: Activity
[13] = Growth inhibition of human SF295 cells assessed as cell growth at 10 uM after 48 hrs by sulforhodamine B assay relative to control; conditions: SF-295, 48 h, read-out: Activity
[14] = Growth inhibition of human UACC62 cells assessed as cell growth at 10 uM after 48 hrs by sulforhodamine B assay relative to control; conditions: UACC-62, 48 h, read-out: Activity
[15] = Growth inhibition of human RXF393 cells assessed as cell growth at 10 uM after 48 hrs by sulforhodamine B assay relative to control; conditions: RXF 393, 48 h, read-out: Activity
[16] = tested on: HOP-62; test: Growth inhibition of human HOP62 cells assessed as cell growth at 10 uM after 48 hrs by sulforhodamine B assay relative to control; conditions: HOP-62, 48 h, read-out: Activity
[17] = tested on: SW-620; test: Growth inhibition of human SW620 cells assessed as cell growth at 10 uM after 48 hrs by sulforhodamine B assay relative to control; conditions: SW-620, 48 h, read-out: Activity
[18] = tested on: NCI-H226; test: Growth inhibition of human NCI-H226 cells assessed as cell growth at 10 uM after 48 hrs by sulforhodamine B assay relative to control; conditions: NCI-H226, 48 h, read-out: Activity
[19] = tested on: SNB-75; test: Growth inhibition of human SNB75 cells assessed as cell growth at 10 uM after 48 hrs by sulforhodamine B assay relative to control; conditions: SNB-75, 48 h, read-out: Activity
[20] = Growth inhibition of human OVCAR8 cells assessed as cell growth at 10 uM after 48 hrs by sulforhodamine B assay relative to control; conditions: OVCAR-8, 48 h, read-out: Activity
[21] = tested on: MDA-MB-231; test: Growth inhibition of human MDA-MB-231 cells assessed as cell growth at 10 uM after 48 hrs by sulforhodamine B assay relative to control; conditions: MDA-MB-231, 48 h, read-out: Activity
[22] = Growth inhibition of human OVCAR5 cells assessed as cell growth at 10 uM after 48 hrs by sulforhodamine B assay relative to control; conditions: OVCAR-5, 48 h, read-out: Activity
[23] = tested on: NCI-H522; test: Growth inhibition of human NCI-H522 cells assessed as cell growth at 10 uM after 48 hrs by sulforhodamine B assay relative to control; conditions: NCI-H522, 48 h, read-out: Activity
[24] = tested on: SK-OV-3; test: Growth inhibition of human SKOV3 cells assessed as cell growth at 10 uM after 48 hrs by sulforhodamine B assay relative to control; conditions: SK-OV-3, 48 h, read-out: Activity
[25] = Growth inhibition of human OVCAR3 cells assessed as cell growth at 10 uM after 48 hrs by sulforhodamine B assay relative to control; conditions: OVCAR-3, 48 h, read-out: Activity
[26] = tested on: SK-MEL-2; test: Growth inhibition of human SK-MEL-2 cells assessed as cell growth at 10 uM after 48 hrs by sulforhodamine B assay relative to control; conditions: SK-MEL-2, 48 h, read-out: Activity
[27] = Growth inhibition of human BT549 cells assessed as cell growth at 10 uM after 48 hrs by sulforhodamine B assay relative to control; conditions: BT-549, 48 h, read-out: Activity
[28] = Growth inhibition of human LOXIMVI cells assessed as cell growth at 10 uM after 48 hrs by sulforhodamine B assay relative to control; conditions: LOX IMVI, read-out: Activity
[29] = Growth inhibition of human UO31 cells assessed as cell growth at 10 uM after 48 hrs by sulforhodamine B assay relative to control; conditions: UO-31, 48 h, read-out: Activity
[30] = tested on: 786-0; test: Growth inhibition of human 786-0 cells assessed as cell growth at 10 uM after 48 hrs by sulforhodamine B assay relative to control; conditions: 786-0, 48 h, read-out: Activity
[31] = tested on: SK-MEL-28; test: Growth inhibition of human SK-MEL-28 cells assessed as cell growth at 10 uM after 48 hrs by sulforhodamine B assay relative to control; conditions: SK-MEL-28, 48 h, read-out: Activity
[32] = tested on: HCT-116; test: Growth inhibition of human HCT116 cells assessed as cell growth at 10 uM after 48 hrs by sulforhodamine B assay relative to control; conditions: HCT-116, 48 h, read-out: Activity
[33] = tested on: SK-MEL-5; test: Growth inhibition of human SK-MEL-5 cells assessed as cell growth at 10 uM after 48 hrs by sulforhodamine B assay relative to control; conditions: SK-MEL-5, 48 h, read-out: Activity

Compound	growth at 10 µM [1] [%]	growth at 10 µM [2] [%]	growth at 10 µM [3] [%]	growth at 10 µM [4] [%]	growth at 10 µM [5] [%]	growth at 10 µM [6] [%]	growth at 10 µM [7] [%]	growth at 10 µM [8] [%]	growth at 10 µM [9] [%]	growth at 10 µM [10] [%]	growth at 10 µM [11] [%]	growth at 10 µM [12] [%]	growth at 10 µM [13] [%]	growth at 10 µM [14] [%]	growth at 10 µM [15] [%]	growth at 10 µM [16] [%]	growth at 10 µM [17] [%]	growth at 10 µM [18] [%]	growth at 10 µM [19] [%]	growth at 10 µM [20] [%]	other results
O=C1CS/C(=N\c2nc(-c3ccccc3Cl)cc(-c3ccc(Cl)cc3Cl)n2)N1	105	94	93.5	99.6	98.1	84.6	101	90	79.5	88.6	97.7	87.2	116	91.2	111	87.5	92.9	104	76.6	96.1	growth at 10 µM [21]: 88.8%; growth at 10 µM [22]: 108%; growth at 10 µM [23]: 88.6%; growth at 10 µM [24]: 95.4%; growth at 10 µM [25]: 101%; growth at 10 µM [26]: 97.9%; growth at 10 µM [27]: 98.4%; growth at 10 µM [28]: 90.4%; growth at 10 µM [29]: 58%; growth at 10 µM [30]: 99.7%; growth at 10 µM [31]: 102%; growth at 10 µM [32]: 94.5%; growth at 10 µM [33]: 103%
O=C1N/C(=N/c2nc(-c3ccccc3Cl)cc(-c3ccc(Cl)cc3Cl)n2)S/C1=C/c1ccc(Cl)cc1	100	102	34.2	83.6	91.6	55.1	76.2	76	37.6	97.2	91.9	50.4	48.6	70.2	100	80.2	76.6	98.5	97.5	91.6	growth at 10 µM [21]: 63.2%; growth at 10 µM [22]: 102%; growth at 10 µM [23]: 82.3%; growth at 10 µM [24]: 99.2%; growth at 10 µM [25]: 89.2%; growth at 10 µM [26]: 88.9%; growth at 10 µM [27]: 92.2%; growth at 10 µM [28]: 74.1%; growth at 10 µM [29]: 55.2%; growth at 10 µM [30]: 100%; growth at 10 µM [31]: 104%; growth at 10 µM [32]: 75.4%; growth at 10 µM [33]: 83.6%
Nc1nc(-c2ccccc2Cl)cc(-c2ccc(Cl)cc2Cl)n1	91.4	53.5	18.6	35.2	86	76.2	53.7	75.4	27.3	68	61.9	45.7	38.7	63.1	75.8	76.2	39	87.7	30.5	71.2	growth at 10 µM [21]: 65%; growth at 10 µM [22]: 96.2%; growth at 10 µM [23]: 68.5%; growth at 10 µM [24]: 93%; growth at 10 µM [25]: 85.2%; growth at 10 µM [26]: 96.2%; growth at 10 µM [27]: 75.3%; growth at 10 µM [28]: 55.4%; growth at 10 µM [29]: 62.5%; growth at 10 µM [30]: 90.2%; growth at 10 µM [31]: 88%; growth at 10 µM [32]: 33%; growth at 10 µM [33]: 75.2%
